Read-outs that look alike come from different tables or passages of the source.
Test system: recombinant NL-Rluc virus
Assay: Inhibition of HIV replication (NL-RLuc luciferase reporter virus in MT-2 cells)
Type: cell-based
[1] = Human immunodeficiency virus 1, MT2, 120 h, read-out: Activity
[2] = Human immunodeficiency virus 1, MT2, 120 h, read-out: EC50 μM
[3] = read-out: Activity, MT-2 cells infected with NL-RLuc virus, 5 days of incubation, luciferase readout, serum condition not given

Compound: Cc1nc2cc(-c3cccc(-c4ccc(F)cc4)c3)nn2c(N2CCC3(CC2)CC3)c1[C@H](OC(C)(C)C)C(=O)O [Example 54, (S)-2-(tert-Butoxy)-2-(2-(4′-fluoro-[1,1′-biphenyl]-3-yl)-5-methyl-7-(6-azaspiro[2.5]octan-6-yl)pyrazolo[1,5-a]pyrimidin-6-yl)acetic acid]
- EC50 [1]: 0.1 to 1 µM

Compound: Cc1nc2cc(-c3cccc(-c4cccc(F)c4)c3)nn2c(N2CCC(C)(C)CC2)c1[C@H](OC(C)(C)C)C(=O)O [Example 55, (S)-2-(tert-Butoxy)-2-(7-(4,4-dimethylpiperidin-1-yl)-2-(3′-fluoro-[1,1′-biphenyl]-3-yl)-5-methylpyrazolo[1,5-a]pyrimidin-6-yl)acetic acid]
- EC50 [1]: 0.1 to 1 µM

Compound: Cc1nc2cc(-c3cccc(-c4ccc(F)cc4)c3)nn2c(N2CCC(C)(C)CC2)c1[C@H](OC(C)(C)C)C(=O)O [Example 56, (S)-2-(tert-Butoxy)-2-(7-(4,4-dimethylpiperidin-1-yl)-2-(4′-fluoro-[1,1′-biphenyl]-3-yl)-5-methylpyrazolo[1,5-a]pyrimidin-6-yl)acetic acid]
- EC50 [1]: 0.1 to 1 µM

Compound: Cc1nc2cc(-c3cccc(-c4ccc5cnn(C)c5c4)c3)nn2c(N2CCC(C)(C)CC2)c1[C@H](OC(C)(C)C)C(=O)O [Example 57, (S)-2-(tert-Butoxy)-2-(7-(4,4-dimethylpiperidin-1-yl)-5-methyl-2-(3-(1-methyl-1H-indazol-6-yl)phenyl)pyrazolo[1,5-a]pyrimidin-6-yl)acetic acid]
- EC50 [1]: < 0.1 µM

Compound: Cc1ccccc1-c1cccc(-c2cc3nc(C)c([C@H](OC(C)(C)C)C(=O)O)c(N4CCC(C)(C)CC4)n3n2)c1 [Example 58, (S)-2-(tert-Butoxy)-2-(7-(4,4-dimethylpiperidin-1-yl)-5-methyl-2-(2′-methyl-[1,1′-biphenyl]-3-yl)pyrazolo[1,5-a]pyrimidin-6-yl)acetic acid]
- EC50 [1]: < 0.1 µM

Compound: COc1ccccc1-c1cccc(-c2cc3nc(C)c([C@H](OC(C)(C)C)C(=O)O)c(N4CCC(C)(C)CC4)n3n2)c1 [Example 59, (S)-2-(tert-Butoxy)-2-(7-(4,4-dimethylpiperidin-1-yl)-2-(2′-methoxy-[1,1′-biphenyl]-3-yl)-5-methylpyrazolo[1,5-a]pyrimidin-6-yl)acetic acid]
- EC50 [1]: < 0.1 µM
- EC50 [2]: 0.015 µM

Compound: Cc1nc2cc(-c3cccc(-c4ccc5cnn(C)c5c4)c3)nn2c(N2CCC3(CC2)CC3)c1[C@H](OC(C)(C)C)C(=O)O [Example 60, (S)-2-(tert-Butoxy)-2-(5-methyl-2-(3-(1-methyl-1H-indazol-6-yl)phenyl)-7-(6-azaspiro[2.5]octan-6-yl)pyrazolo[1,5-a]pyrimidin-6-yl)acetic acid]
- EC50 [1]: < 0.1 µM

Compound: Cc1nc2cc(-c3cccc(-c4ccccc4)c3)nn2c(N2CCC3(C)CC3C2)c1[C@H](OC(C)(C)C)C(=O)O (stereo partly drawn) [Example 61, (2S)-2-(2-([1,1′-Biphenyl]-3-yl)-5-methyl-7-(6-methyl-3-azabicyclo[4.1.0]heptan-3-yl)pyrazolo[1,5-a]pyrimidin-6-yl)-2-(tert-butoxy)acetic acid]
- EC50 [1]: 0.1 to 1 µM

Compound: Cc1nc2cc(-c3cccc(-c4ccccc4)c3)nn2c(N2CCC3(C)CC3C2)c1[C@H](OC(C)(C)C)C(=O)O (stereo partly drawn) [Example 62, (2S)-2-(2-([1,1′-Biphenyl]-3-yl)-5-methyl-7-(6-methyl-3-azabicyclo[4.1.0]heptan-3-yl)pyrazolo[1,5-a]pyrimidin-6-yl)-2-(tert-butoxy)acetic acid]
- EC50 [2]: 0.42 µM
- EC50 [3]: 0.1 to 1 µM

Compound: Cc1nc2cc(-c3cccc(-c4ccccc4F)c3)nn2c(N2CCC3(C)CC3C2)c1[C@H](OC(C)(C)C)C(=O)O (stereo partly drawn) [Example 63, (2S)-2-(tert-Butoxy)-2-(2-(2′-fluoro-[1,1′-biphenyl]-3-yl)-5-methyl-7-(6-methyl-3-azabicyclo[4.1.0]heptan-3-yl)pyrazolo[1,5-a]pyrimidin-6-yl)acetic acid]
- EC50 [1]: 0.1 to 1 µM

Compound: Cc1nc2cc(-c3cccc(-c4ccccc4F)c3)nn2c(N2CCC3(C)CC3C2)c1[C@H](OC(C)(C)C)C(=O)O (stereo partly drawn) [Example 64, (2S)-2-(tert-Butoxy)-2-(2-(2′-fluoro-[1,1′-biphenyl]-3-yl)-5-methyl-7-(6-methyl-3-azabicyclo[4.1.0]heptan-3-yl)pyrazolo[1,5-a]pyrimidin-6-yl)acetic acid]
- EC50 [3]: 0.1 to 1 µM

Compound: Cc1nc2cc(-c3cc(-c4ccccc4)ccn3)nn2c(N2CCC(C)(C)CC2)c1[C@H](OC(C)(C)C)C(=O)O [Example 65, (S)-2-(tert-Butoxy)-2-(7-(4,4-dimethylpiperidin-1-yl)-5-methyl-2-(4-phenylpyridin-2-yl)pyrazolo[1,5-a]pyrimidin-6-yl)acetic acid]
- EC50 [1]: 0.1 to 1 µM

Compound: Cc1nc2cc(-c3cccc(Oc4ccccc4)c3)nn2c(N2CCC(C)(C)CC2)c1[C@H](OC(C)(C)C)C(=O)O [Example 66, (S)-2-(tert-Butoxy)-2-(7-(4,4-dimethylpiperidin-1-yl)-5-methyl-2-(3-phenoxyphenyl)pyrazolo[1,5-a]pyrimidin-6-yl)acetic acid]
- EC50 [1]: 0.1 to 1 µM

Compound: Cc1nc2cc(-c3cccc(-c4ccccc4)n3)nn2c(N2CCC(C)(C)CC2)c1[C@H](OC(C)(C)C)C(=O)O [Example 67, (S)-2-(tert-Butoxy)-2-(7-(4,4-dimethylpiperidin-1-yl)-5-methyl-2-(6-phenylpyridin-2-yl)pyrazolo[1,5-a]pyrimidin-6-yl)acetic acid]
- EC50 [1]: 0.1 to 1 µM

Compound: Cc1nc2cc(-c3cccc(Oc4ccccc4)n3)nn2c(N2CCC(C)(C)CC2)c1[C@H](OC(C)(C)C)C(=O)O [Example 68, (S)-2-(tert-Butoxy)-2-(7-(4,4-dimethylpiperidin-1-yl)-5-methyl-2-(6-phenoxypyridin-2-yl)pyrazolo[1,5-a]pyrimidin-6-yl)acetic acid]
- EC50 [1]: 0.1 to 1 µM

Compound: Cc1nc2cc(-c3cccc(OCc4ccccc4)n3)nn2c(N2CCC(C)(C)CC2)c1[C@H](OC(C)(C)C)C(=O)O [Example 69, (S)-2-(2-(6-(Benzyloxy)pyridin-2-yl)-7-(4,4-dimethylpiperidin-1-yl)-5-methylpyrazolo[1,5-a]pyrimidin-6-yl)-2-(tert-butoxy)acetic acid]
- EC50 [1]: 0.1 to 1 µM
- EC50 [2]: 0.19 µM

Compound: Cc1nc2cc(-c3cccc(Cc4ccccc4)n3)nn2c(N2CCC(C)(C)CC2)c1[C@H](OC(C)(C)C)C(=O)O [Example 70, (S)-2-(2-(6-Benzylpyridin-2-yl)-7-(4,4-dimethylpiperidin-1-yl)-5-methylpyrazolo[1,5-a]pyrimidin-6-yl)-2-(tert-butoxy)acetic acid]
- EC50 [1]: 0.1 to 1 µM

From patent US9034882B2, “Inhibitors of human immunodeficiency virus replication” (priority 2012, dated 2015)
